Consider three compounds from patent US8747912B2, “Drug delivery system” (Isis Innovation Limited, priority 2000, dated 2014).

Each structure is given as a SMILES string.

This data set in a line: Release of the drugs from their intercalation compounds in phosphate buffer solution at 37° C. Particulars: stirred at 1000 rpm, intercalate in [LiAl2(OH)6]Cl.H2O, UV of filtrate. Type of data set: physicochemical. As to the method: Release of the drugs from their intercalation compounds was performed in each case by the addition of 0.0250 g-0.100 g of the intercalation compound to 250 mL phosphate buffer solution at 37° C. […] The release in phosphate buffer at pH 7 and at pH 4 was investigated. Aliquots were removed from the flask at regular time intervals, the solution was filtered and the UV spectrum of the filtrate recorded in a […] quartz cuvette. A baseline scan using the neat solution was recorded prior to the collection of the first spectrum of the filtrate.

For the compound `O=C(O)Cc1ccc(-c2ccccc2)cc1` [4-biphenylacetic acid], the “release of the drug from its intercalation compound” value (“release of the drug” below) was “rapid” (phosphate buffer pH 4, 37° C.); “slower and more controlled” (phosphate buffer pH 7, 37° C.).

With `O=C([O-])Cc1ccccc1Nc1c(Cl)cccc1Cl.[Na+]` [Diclofenac, sodium (2-(2,6-dichloroanilino)phenyl)acetate], the “release of the drug” value by setting is: (phosphate buffer pH 4, 37° C.) “rapid”; (phosphate buffer pH 7, 37° C.) “slower and more controlled”.

Take `COc1ccc2cc([C@H](C)C(=O)O)ccc2c1` [Naproxen, (+)-2-(6-methoxy-2-naphthyl)propionic acid]: the “release of the drug” value is “rapid” (phosphate buffer pH 4, 37° C.); “slower and more controlled” (phosphate buffer pH 7, 37° C.).
